Assay results reported in US20260191835A1, “COMBINATIONS COMPRISING A MENIN-MLL INHIBITOR AND AT LEAST ONE OTHER THERAPEUTIC AGENT” (JANSSEN PHARMACEUTICA NV, priority 2022, published 2026).

Test system: OCI-AML3 cells
Assay: In vitro proliferation (Cell Titer Glo, 6 days) of Compound 51 in combination with idarubicin or decitabine, OCI-AML3
Assay type: cell-based, human
Settings: for combination effect on proliferation (cytotoxicity): OCI-AML3 (NPM1c)
Method: 3) In Vitro Proliferation—Menin-MLL Inhibitor in Combination with FLT3 Inhibitor (Gilteritinib or Midostaurin), DNA Intercalating Agent (Idarubicin) or Hypomethylating Agent (Decitabine)
The effect of Compound 51 in combination with gilteritinib, midostaurin, idarubicin or decitabine was determined in proliferation assays.
AML cell lines MOLM-13, OCI-AML3 and MV4-11 were purchased from DSMZ. MOLM-13 were grown in RPMI medium supplemented with 10% Fetal Bovine Serum (FBS) and 1% penicillin/streptomycin. MV4-11 cells were grown in IMDM medium supplemented with 10% FBS and 1% penicillin/streptomycin. OCI-AML3 cells were cultured in 80-90% alpha-MEM (with or without ribo- and deoxyribonucleosides)+10-20% FBS. All cell lines were cultured at 37° C. in 5% CO2 atmosphere.
AML cell lines (10-20×10^3 cells/well) were seeded in 96-well plates and grown for 6 days in serum (10%)-containing medium in the presence or absence of inhibitors at the indicated concentrations. Proliferation was analyzed by means of a Cell Titer Glo assay using the […] (Promega, Madison, WI, USA), according to the manufacturer's instructions. Data are mean with standard deviation from two to four independent experiments in technical triplicates.
R-based Biochemically Intuitive Generalized Loewe (BIGL) model implemented with a highest single agent (HSA) null model. Specifically, the BIGL methodology was applied to calculate drug-drug interactions (Van der Borght, K., Tourny, A., Bagdziunas, R. et al. BIGL: Biochemically Intuitive Generalized Loewe null model for prediction of the expected combined effect compatible with partial agonism and antagonism. Sci Rep 7, 17935 (2017); Thas, O., Tourny, A., Verbist, B., Hawinkel, S., Nazarov, M., Mutambanengwe, K., & Bijnens, L. Statistical detection of synergy: New methods and a comparative study. Pharmaceutical Statistics (2021)).
Synergy matrix results of the BIGL analysis of the cell line data with HSA as mean model calculated on the basis of the cellular metabolic activity using Cell Titer-Glo assay. Bootstrap confidence intervals are indicated. Effect sizes and their confidence intervals are shown. […] No significant average effect if zero is included in the interval.

**Q.** How did the “Effect size (BIGL, HSA null model), OCI-AML3 Cell Proliferation” value (“Effect size (BIGL, HSA null model)” for short) (Compound 51 0.001 μm + Decitabine 0.0015 μM) turn out when `CC(=O)N1CCC(CN2CC[C@@H](Cc3cn(-c4ccc(F)cc4C(=O)N(C)C(C)C)c4cncc(C)c34)C2)CC1` [Compound 51] was run?
**A.** The value was −0.02.

**Q.** What about the “Effect size (BIGL, HSA null model)” value (Compound 51 0.001 μm + Decitabine 0.015 μM) of the same compound?
**A.** The value was −0.06.

**Q.** And the “Effect size (BIGL, HSA null model)” value (Compound 51 0.001 μm + Decitabine 0.35 μM)?
**A.** Its value is −0.04.

**Q.** What about the “Effect size (BIGL, HSA null model)” value (Compound 51 0.001 μm + Decitabine 3 μM) of the same compound?
**A.** Its value is 0.01.

**Q.** And the “Effect size (BIGL, HSA null model)” value (Compound 51 0.001 μm + Decitabine 3.5 μM)?
**A.** The value was −0.02.

**Q.** And the “Effect size (BIGL, HSA null model)” value (Compound 51 0.001 μm + Idarubicin 0.0005 μM)?
**A.** Its value is −0.02.

**Q.** And the “Effect size (BIGL, HSA null model)” value (Compound 51 0.001 μm + Idarubicin 0.00625 μM)?
**A.** Its value is 0.

**Q.** And the “Effect size (BIGL, HSA null model)” value (Compound 51 0.001 μm + Idarubicin 0.0125 μM)?
**A.** The value was 0.02.

**Q.** And the “Effect size (BIGL, HSA null model)” value (Compound 51 0.001 μm + Idarubicin 0.025 μM)?
**A.** Its value is 0.

**Q.** And the “Effect size (BIGL, HSA null model)” value (Compound 51 0.001 μm + Idarubicin 0.05 μM)?
**A.** The value was −0.01.

**Q.** And the “Effect size (BIGL, HSA null model)” value (Compound 51 0.001 μm + Idarubicin 0.5 μM)?
**A.** Its value is −0.01.

**Q.** And the “Effect size (BIGL, HSA null model)” value (Compound 51 0.01 μm + Decitabine 0.0015 μM)?
**A.** The value was −0.01.

**Q.** And the “Effect size (BIGL, HSA null model)” value (Compound 51 0.01 μm + Decitabine 0.015 μM)?
**A.** The value was −0.1.

**Q.** What about the “Effect size (BIGL, HSA null model)” value (Compound 51 0.01 μm + Decitabine 0.35 μM) of the same compound?
**A.** Its value is −0.07.

**Q.** What about the “Effect size (BIGL, HSA null model)” value (Compound 51 0.01 μm + Decitabine 3 μM) of the same compound?
**A.** The value was 0.

**Q.** What about the “Effect size (BIGL, HSA null model)” value (Compound 51 0.01 μm + Decitabine 3.5 μM) of the same compound?
**A.** Its value is −0.02.

**Q.** And the “Effect size (BIGL, HSA null model)” value (Compound 51 0.01 μm + Idarubicin 0.0005 μM)?
**A.** The value was 0.05.

**Q.** And the “Effect size (BIGL, HSA null model)” value (Compound 51 0.01 μm + Idarubicin 0.00625 μM)?
**A.** Its value is −0.02.

**Q.** What about the “Effect size (BIGL, HSA null model)” value (Compound 51 0.01 μm + Idarubicin 0.0125 μM) of the same compound?
**A.** The value was 0.01.

**Q.** What about the “Effect size (BIGL, HSA null model)” value (Compound 51 0.01 μm + Idarubicin 0.025 μM) of the same compound?
**A.** Its value is 0.

**Q.** What about the “Effect size (BIGL, HSA null model)” value (Compound 51 0.01 μm + Idarubicin 0.05 μM) of the same compound?
**A.** The value was −0.01.

**Q.** And the “Effect size (BIGL, HSA null model)” value (Compound 51 0.01 μm + Idarubicin 0.5 μM)?
**A.** Its value is −0.01.

**Q.** And the “Effect size (BIGL, HSA null model)” value (Compound 51 0.05 μm + Decitabine 0.0015 μM)?
**A.** The value was 0.

**Q.** What about the “Effect size (BIGL, HSA null model)” value (Compound 51 0.05 μm + Decitabine 0.015 μM) of the same compound?
**A.** The value was 0.

**Q.** And the “Effect size (BIGL, HSA null model)” value (Compound 51 0.05 μm + Decitabine 0.35 μM)?
**A.** Its value is −0.1.

**Q.** What about the “Effect size (BIGL, HSA null model)” value (Compound 51 0.05 μm + Decitabine 3 μM) of the same compound?
**A.** The value was 0.

**Q.** And the “Effect size (BIGL, HSA null model)” value (Compound 51 0.05 μm + Decitabine 3.5 μM)?
**A.** The value was −0.03.

**Q.** And the “Effect size (BIGL, HSA null model)” value (Compound 51 0.05 μm + Idarubicin 0.0005 μM)?
**A.** Its value is 0.04.

**Q.** And the “Effect size (BIGL, HSA null model)” value (Compound 51 0.05 μm + Idarubicin 0.00625 μM)?
**A.** The value was −0.04.

**Q.** What about the “Effect size (BIGL, HSA null model)” value (Compound 51 0.05 μm + Idarubicin 0.0125 μM) of the same compound?
**A.** The value was 0.

**Q.** And the “Effect size (BIGL, HSA null model)” value (Compound 51 0.05 μm + Idarubicin 0.025 μM)?
**A.** Its value is −0.01.

**Q.** And the “Effect size (BIGL, HSA null model)” value (Compound 51 0.05 μm + Idarubicin 0.05 μM)?
**A.** The value was −0.01.

**Q.** What about the “Effect size (BIGL, HSA null model)” value (Compound 51 0.05 μm + Idarubicin 0.5 μM) of the same compound?
**A.** Its value is −0.01.

**Q.** What about the “Effect size (BIGL, HSA null model)” value (Compound 51 0.1 μm + Decitabine 0.0015 μM) of the same compound?
**A.** The value was 0.01.

**Q.** What about the “Effect size (BIGL, HSA null model)” value (Compound 51 0.1 μm + Decitabine 0.015 μM) of the same compound?
**A.** Its value is 0.08.

**Q.** And the “Effect size (BIGL, HSA null model)” value (Compound 51 0.1 μm + Decitabine 0.35 μM)?
**A.** Its value is −0.07.

**Q.** What about the “Effect size (BIGL, HSA null model)” value (Compound 51 0.1 μm + Decitabine 3 μM) of the same compound?
**A.** The value was 0.

**Q.** And the “Effect size (BIGL, HSA null model)” value (Compound 51 0.1 μm + Decitabine 3.5 μM)?
**A.** Its value is −0.02.

**Q.** What about the “Effect size (BIGL, HSA null model)” value (Compound 51 0.1 μm + Idarubicin 0.0005 μM) of the same compound?
**A.** Its value is 0.01.

**Q.** What about the “Effect size (BIGL, HSA null model)” value (Compound 51 0.1 μm + Idarubicin 0.00625 μM) of the same compound?
**A.** Its value is −0.05.

**Q.** What about the “Effect size (BIGL, HSA null model)” value (Compound 51 0.1 μm + Idarubicin 0.0125 μM) of the same compound?
**A.** The value was 0.

**Q.** What about the “Effect size (BIGL, HSA null model)” value (Compound 51 0.1 μm + Idarubicin 0.025 μM) of the same compound?
**A.** The value was 0.

**Q.** And the “Effect size (BIGL, HSA null model)” value (Compound 51 0.1 μm + Idarubicin 0.05 μM)?
**A.** The value was −0.01.

**Q.** What about the “Effect size (BIGL, HSA null model)” value (Compound 51 0.1 μm + Idarubicin 0.5 μM) of the same compound?
**A.** Its value is −0.01.

**Q.** What about the “Effect size (BIGL, HSA null model)” value (Compound 51 1 μm + Decitabine 0.0015 μM) of the same compound?
**A.** The value was 0.02.

**Q.** What about the “Effect size (BIGL, HSA null model)” value (Compound 51 1 μm + Decitabine 0.015 μM) of the same compound?
**A.** The value was 0.13.

**Q.** And the “Effect size (BIGL, HSA null model)” value (Compound 51 1 μm + Decitabine 0.35 μM)?
**A.** The value was 0.01.

**Q.** What about the “Effect size (BIGL, HSA null model)” value (Compound 51 1 μm + Decitabine 3 μM) of the same compound?
**A.** The value was 0.

**Q.** And the “Effect size (BIGL, HSA null model)” value (Compound 51 1 μm + Decitabine 3.5 μM)?
**A.** The value was −0.02.

**Q.** And the “Effect size (BIGL, HSA null model)” value (Compound 51 1 μm + Idarubicin 0.0005 μM)?
**A.** The value was −0.03.

**Q.** What about the “Effect size (BIGL, HSA null model)” value (Compound 51 1 μm + Idarubicin 0.00625 μM) of the same compound?
**A.** The value was −0.06.

**Q.** And the “Effect size (BIGL, HSA null model)” value (Compound 51 1 μm + Idarubicin 0.0125 μM)?
**A.** Its value is 0.

**Q.** What about the “Effect size (BIGL, HSA null model)” value (Compound 51 1 μm + Idarubicin 0.025 μM) of the same compound?
**A.** The value was −0.01.

**Q.** What about the “Effect size (BIGL, HSA null model)” value (Compound 51 1 μm + Idarubicin 0.05 μM) of the same compound?
**A.** The value was −0.01.

**Q.** What about the “Effect size (BIGL, HSA null model)” value (Compound 51 1 μm + Idarubicin 0.5 μM) of the same compound?
**A.** The value was −0.01.

**Q.** And the “Effect size (BIGL, HSA null model)” value (Compound 51 10 μm + Decitabine 0.0015 μM)?
**A.** Its value is 0.01.

**Q.** What about the “Effect size (BIGL, HSA null model)” value (Compound 51 10 μm + Decitabine 0.015 μM) of the same compound?
**A.** Its value is 0.1.

**Q.** What about the “Effect size (BIGL, HSA null model)” value (Compound 51 10 μm + Decitabine 0.35 μM) of the same compound?
**A.** The value was −0.02.

**Q.** And the “Effect size (BIGL, HSA null model)” value (Compound 51 10 μm + Decitabine 3 μM)?
**A.** The value was 0.01.

**Q.** What about the “Effect size (BIGL, HSA null model)” value (Compound 51 10 μm + Decitabine 3.5 μM) of the same compound?
**A.** Its value is −0.01.

**Q.** And the “Effect size (BIGL, HSA null model)” value (Compound 51 10 μm + Idarubicin 0.0005 μM)?
**A.** Its value is 0.04.

**Q.** What about the “Effect size (BIGL, HSA null model)” value (Compound 51 10 μm + Idarubicin 0.00625 μM) of the same compound?
**A.** The value was −0.06.

**Q.** And the “Effect size (BIGL, HSA null model)” value (Compound 51 10 μm + Idarubicin 0.0125 μM)?
**A.** Its value is 0.

**Q.** And the “Effect size (BIGL, HSA null model)” value (Compound 51 10 μm + Idarubicin 0.025 μM)?
**A.** The value was −0.01.

**Q.** What about the “Effect size (BIGL, HSA null model)” value (Compound 51 10 μm + Idarubicin 0.05 μM) of the same compound?
**A.** The value was −0.01.

**Q.** What about the “Effect size (BIGL, HSA null model)” value (Compound 51 10 μm + Idarubicin 0.5 μM) of the same compound?
**A.** Its value is −0.01.

**Q.** And the “combination effect on proliferation (cytotoxicity)” value (in combination with decitabine, 6-day CellTiter-Glo matrix)?
**A.** Its value is “not antagonistically cytotoxic”.

**Q.** What about the “combination effect on proliferation (cytotoxicity)” value (in combination with idarubicin, 6-day Cell Titer-Glo matrix) of the same compound?
**A.** The value was “not antagonistically cytotoxic”.
